Measurements: PubChem BioAssay AID1339 (NMMLSC, 2008)

Target: Ras-related C3 botulinum toxin substrate 1 (Homo sapiens) (UniProt P63000)
Experiment: inhibitors of activated mutant Rac1 GTP binding, dose response, biochemical, multiplex, GST-Rac1 beads, Bodipy-FL-GTP, flow cytometry (AID 1339)

| Compound | EC50 |
| --- | --- |
| COc1ccc(Cl)cc1NCc1sc(C(=O)O)cc1C | 2.19 µM |
| O=C(C#Cc1ccccc1)c1cccc([N+](=O)[O-])c1 | 23.5 µM |
| CCn1nc(C(=O)OCC(=O)c2cc(C)n(Cc3cccs3)c2C)c2ccccc2c1=O | 45.6 µM |
| Cc1cc(C)cc(OCCSc2nc3ccccc3n2CC(=O)O)c1 | 23.6 µM |
| Cc1ccccc1C(=O)Nc1ccc2c(C#N)c3nc4ccccc4nc3n2c1 | 0.889 µM |
| CCOC(=O)c1c(NC(=O)/C=C/c2ccc3c(c2)OCO3)sc(C)c1CC | 30.1 µM |
| COc1cccc(CNCc2sc(C(=O)O)cc2C)c1 | 25.9 µM |
| O=C(O)/C=C/c1cn(Cc2ccccc2)nc1-c1cccs1 | 1.94 µM |
| Cc1ccc(C(C)C)c(OCCSc2nc3ccccc3n2CC(=O)O)c1 | 33.5 µM |
| O=C(O)c1cc(Sc2ccc(Cl)cc2)nc2ccccc12 | 69.4 µM |
| O=C(O)c1ccccc1Sc1ncnc2sc3c(c12)CCC3 | 1.08 µM |
| CNC(=S)N=Nc1c(O)[nH]c2ccccc12 | 91.6 µM |
| Cc1ccc(C(C)C)c(OCCn2cc(C(=O)O)c3ccccc32)c1 | 0.635 µM |
| CCCOc1ccc(OCCSc2nc3ccccc3n2CC(=O)O)cc1 | 35.6 µM |
| O=[N+]([O-])c1cc2oc3c(c2c(C=NCc2ccccc2)c1O)CCCC3 | 5.79 µM |
| COC(=O)c1cccnc1SCCc1ccccc1 | 36.6 µM |
| Cc1cc(NC(=O)CSc2nc(-c3ccccc3)c(C#N)c(=O)[nH]2)no1 | 12.9 µM |
| Cc1ccc(SC(CC(=O)c2ccc(C(C)(C)C)cc2)C(=O)O)cc1 (stereo not given) | 12.3 µM |
| Cc1ccc(Nc2cc(C(=O)O)c3ccccc3n2)cc1C | 5.56 µM |
| O=C(c1nnsc1S(=O)(=O)c1ccc(Cl)cc1)N1CCOCC1 | 13.7 µM |
| COc1ccc(C(=O)Nc2cc(Cl)ccc2C(=O)O)cc1 | 22.1 µM |
| COc1cccc(NC(=O)COC(=O)/C=C/c2ccc(Cl)cc2Cl)c1 | 13.3 µM |
| Cc1cc(C)c(C)c(C(=O)c2ccccc2C(=O)O)c1C | 1.52 µM |
| N#Cc1c(-c2ccccc2)nc(SCC(=O)Nc2ccccc2)[nH]c1=O | 29.5 µM |
| CC(=O)c1c(C)[nH]c(C(=O)N2CCc3ccccc3C2)c1C | 2.53 µM |
| COc1ccccc1OCc1cccc(C(=O)O)c1 | 9.53 µM |
| CCN(CC)c1ccc2cc(-c3nc(-c4ccc(OC)cc4)cs3)c(=O)oc2c1 | 0.553 µM |
| Cc1cc(C(=O)Oc2ccccc2C(=O)O)c(C)o1 | 0.665 µM |

| Compound | EC50 |
| --- | --- |
| COc1cc(C(=O)OCC(=O)Nc2ccc3c(c2)OC(F)(F)O3)ccc1OCc1c(C)noc1C | 14.2 µM |
| Cc1cc(C(=O)Cn2nc(C(=O)O)c3ccccc3c2=O)c(C)n1-c1ccc(OC(F)F)cc1 | 3.55 µM |
| O=C(C#Cc1ccccc1)c1ccc([N+](=O)[O-])cc1 | 6.48 µM |
| COc1ccccc1OCCn1cc(C(=O)O)c2ccc(Cl)cc21 | 1.75 µM |
| OC(CNCCc1ccc(Cl)cc1)COc1ccc2ccccc2c1 (stereo not given) | 39 µM |
| CC(=O)Nc1cccc(C#CC(=O)c2ccc([N+](=O)[O-])cc2)c1 | 14.2 µM |
| COc1ccc(OC)c(-c2c3cc(O)c(=O)cc-3oc3cc(O)c(O)cc23)c1 | 0.28 µM |
| O=C(CSc1ncnc2scc(-c3ccccc3)c12)N1CCN(Cc2ccc3c(c2)OCO3)CC1 | 61.1 µM |
| Cc1ccccc1OCCn1c(C)c(C(=O)O)c2ccccc21 | 0.625 µM |
| O=C(O)c1cn(CCOc2ccccc2)c2ccccc12 | 0.857 µM |
| CSc1ccc(/C=N/NC(=O)c2cc(O)cc(O)c2)cc1 | 55.4 µM |
| O=C(O)c1ccccc1NCc1c(Cl)cccc1Cl | 34.1 µM |
| O=C(C#Cc1ccc(F)cc1)c1ccc([N+](=O)[O-])cc1 | 3.92 µM |
| COc1ccc(C(=O)c2c(O)cc(-c3ccc(OC)cc3)oc2=O)cc1 | 3.57 µM |
| Cc1ccc(-n2c(-c3cnccn3)n[nH]c2=S)c(Br)c1 | 28 µM |
| CC(=O)c1ccc(C#CC(=O)c2ccc([N+](=O)[O-])cc2)cc1 | 1.22 µM |
| Cc1cc(OCCSc2nc3ccccc3n2CC(=O)O)ccc1Cl | 25.1 µM |
| COc1ccccc1NCc1sc(C(=O)O)cc1C | 4.26 µM |
| CCc1ccc(NS(=O)(=O)c2ccc3[nH]cc(C(=O)N4CCc5ccccc54)c(=O)c3c2)cc1 | 20.6 µM |
| O=C(Nc1nnc(-c2ccc3c(c2)OCCO3)o1)c1ccc(Cc2ccccc2)cc1 | 10.2 µM |
| CC(C)(C)C#CC(=O)c1ccc([N+](=O)[O-])cc1 | 65.1 µM |
| O=C(O)c1cc(Sc2ccc(F)cc2)nc2ccccc12 | 46.8 µM |
| Cc1ccc(C)c(OCCn2cc(C(=O)O)c3ccccc32)c1 | 0.222 µM |
| CCOC(=O)c1cc([N+](=O)[O-])c([N+](=O)[O-])cc1NC(C)=O | 31.5 µM |
| Cc1nn(Cc2ccccc2)c(Cl)c1C(=O)O | 21.7 µM |
| CS(=O)(=O)c1ccc(C(=O)OCC(=O)NC(=O)C2CCCCC2)cc1[N+](=O)[O-] | 43.2 µM |
| CCOc1ccc(/C=C2\SC(N3CCc4ccccc4C3)=NC2=O)cc1 | 10.6 µM |
